Columns and labels:
Assay in all cases: MIC by broth dilution (NCCLS M7-A2)
Format in all cases: cell-based
Conditions in all cases: 90% growth inhibition
S. pneumoniae = tested on: S. pneumoniae
Excerpt: (§1) MIC levels for all compound were determinated on panel of susceptible, and resistant Gram positive bacterial strains (S. aureus, S. pneumoniae and S. pyogenes) and on Gram negative strains (E. coli, H. influenzae, […], M. catarrhalis).

H. influenzae ATCC 49247 = tested on: H. influenzae ATCC 49247
Excerpt: as §1

S. aureus ATCC 13709 = tested on: S. aureus ATCC 13709
Excerpt: as §1

S. pyogenes = tested on: S. pyogenes
Excerpt: as §1

E. coli ATCC 25922 = tested on: E. coli ATCC 25922
Excerpt: as §1

S. pyogenes iMLS = tested on: S. pyogenes iMLS
Excerpt: as §1

E. faecalis ATCC 29212 = tested on: E. faecalis ATCC 29212
Excerpt: as §1

S. pyogenes M = tested on: S. pyogenes M
Excerpt: as §1

[1] = tested on: M. catarrhalis ATCC 23246
Excerpt: as §1

| Compound | MIK (S. pneumoniae) | MIK (H. influenzae ATCC 49247) [µg/mL] | MIK (S. aureus ATCC 13709) [µg/mL] | MIK (S. pyogenes) | MIK (E. coli ATCC 25922) [µg/mL] | MIK (S. pyogenes iMLS) [µg/mL] | MIK (E. faecalis ATCC 29212) [µg/mL] | MIK (S. pyogenes M) [µg/mL] | MIK [1] [µg/mL] |
| --- | --- | --- | --- | --- | --- | --- | --- | --- | --- |
| 9-Deoxo-9-dihydro-9a-N-[N′-(β-cyanoethyl)-N′-(2,4-dichlorophenyl)carbamoyl-γ-aminopropyl]-9a-aza-9a-homoerithromycin A [Example 39] | ≦0.125 μg/ml | 16 | 1 | ≦0.125 μg/ml | >64 | 32 | >64 | 64 | 16 |
| 9-Deoxo-9-dihydro-9a-N-[N′-(β-cyanoethyl)-N′-(3,4,5-trimethoxyphenyl)carbamoyl-γ-aminopropyl]-9a-aza-9a-homoerithromycin A [Example 37] | ≦0.125 μg/ml | 2 | 4 | ≦0.125 μg/ml | 16 | 47 | 16 | 8 | 1 |
| 9-Deoxo-9-dihydro-9a-N-[N′-(β-cyanoethyl)-N′-(β-phenylethyl)thiocarbamoyl-γ-aminopropyl]-9a-aza-9a-homoerithromycin A [Example 34] | ≦0.125 μg/ml | 2 | 1 | ≦0.125 μg/ml | 32 | 4 | 16 | 8 | 1 |
| 9-Deoxo-9-dihydro-9a-N-[N′-(β-cyanoethyl)-N′-benzylcarbamoyl-γ-aminopropyl]-9a-aza-9a-homoerithromycin A [Example 29] | ≦0.125 μg/ml | 32 | 2 | ≦0.125 μg/ml | >64 | 16 | >64 | 64 | 4 |
| 9-Deoxo-9-dihydro-9a-N-[N′-(β-cyanoethyl)-N′-isopropylcarbamoyl-γ-aminopropyl]-9a-aza-9a-homorithromycin A [Example 27] | ≦0.125 μg/ml | 32 | 4 | ≦0.125 μg/ml | 16 | 8 | 32 | 32 | 0.5 |
| 9-Deoxo-9-dihydro-9a-N-{N′-(β-cyanoethyl)-N′-[1-(1-naphtyl)ethyl]carbamoyl-γ-aminopropyl}-9a-aza-9a-homoerithromycin A [Example 36] | ≦0.125 μg/ml | 2 | 2 | ≦0.125 μg/ml | 64 | 8 | 16 | 16 | 4 |
| CC[C@H]1OC(=O)[C@H](C)[C@@H](O[C@H]2C[C@@](C)(OC)[C@@H](O)[C@H](C)O2)[C@H](C)[C@@H](O[C@@H]2O[C@H](C)C[C@H](N(C)C)[C@H]2O)[C@](C)(O)C[C@@H](C)C(=O)[C@H](C)[C@@H](O)[C@]1(C)O [Er, erythromycin A, reference compound] | – | 2 | – | 0.25 µg/mL | 32 | >64 | 1 | 8 | – |
| CC[C@H]1OC(=O)[C@H](C)[C@@H](O[C@H]2C[C@@](C)(OC)[C@@H](O)[C@H](C)O2)[C@H](C)[C@@H](O[C@@H]2O[C@H](C)C[C@H](N(C)C)[C@H]2O)[C@](C)(O)C[C@@H](C)CN(CCCNC(=O)NC(C)C)[C@H](C)[C@@H](O)[C@]1(C)O [Example 1, 9-Deoxo-9-dihydro-9a-N-(N′-isopropylcarbainoyl-γ-aminopropyl)-9a-aza-9a-homoerithromycin A] | ≦0.125 μg/ml | 32 | 2 | ≦0.125 μg/ml | 16 | 8 | 32 | 32 | 0.5 |
| CC[C@H]1OC(=O)[C@H](C)[C@@H](O[C@H]2C[C@@](C)(OC)[C@@H](O)[C@H](C)O2)[C@H](C)[C@@H](O[C@@H]2O[C@H](C)C[C@H](N(C)C)[C@H]2O)[C@](C)(O)C[C@@H](C)CN(CCCNC(=O)Nc2cccc3ccccc23)[C@H](C)[C@@H](O)[C@]1(C)O [Example 2, 9-Deoxo-9-dihydro-9a-N-[N′-(1-naphtyl)carbamoyl-γ-aminopropyl]-9a-aza-9a-homoerithromycin A] | ≦0.125 μg/ml | 1 | 0.5 | ≦0.125 μg/ml | 8 | 2 | 4 | 4 | 0.25 |
| CC[C@H]1OC(=O)[C@H](C)[C@@H](O[C@H]2C[C@@](C)(OC)[C@@H](O)[C@H](C)O2)[C@H](C)[C@@H](O[C@@H]2O[C@H](C)C[C@H](N(C)C)[C@H]2O)[C@](C)(O)C[C@@H](C)CN(CCCNC(=O)NCc2ccccc2)[C@H](C)[C@@H](O)[C@]1(C)O [Example 3, 9-Deoxo-9-dihydro-9a-N-(N′-benzylcarbamoyl-γ-aminopropyl)-9a-aza-9a-homoerithromycin A] | ≦0.125 μg/ml | 2 | 0.5 | ≦0.125 μg/ml | 16 | 4 | 16 | 8 | 1 |
| CC[C@H]1OC(=O)[C@H](C)[C@@H](O[C@H]2C[C@@](C)(OC)[C@@H](O)[C@H](C)O2)[C@H](C)[C@@H](O[C@@H]2O[C@H](C)C[C@H](N(C)C)[C@H]2O)[C@](C)(O)C[C@@H](C)CN(CCCNC(=S)NCc2ccccc2)[C@H](C)[C@@H](O)[C@]1(C)O [Example 4, 9-Deoxo-9-dihydro-9a-N-(N′-benzylthiocarbamoyl-γ-aminopropyl)-9a-aza-9a-homoerithromycin A] | ≦0.125 μg/ml | 2 | 2 | ≦0.125 μg/ml | 16 | 2 | 8 | 4 | 1 |
| CC[C@H]1OC(=O)[C@H](C)[C@@H](O[C@H]2C[C@@](C)(OC)[C@@H](O)[C@H](C)O2)[C@H](C)[C@@H](O[C@@H]2O[C@H](C)C[C@H](N(C)C)[C@H]2O)[C@](C)(O)C[C@@H](C)CN(CCCNC(=S)Nc2cccc3ccccc23)[C@H](C)[C@@H](O)[C@]1(C)O [Example 5] | ≦0.125 μg/ml | 2 | 2 | ≦0.125 μg/ml | 8 | 4 | 4 | 4 | 2 |
| CC[C@H]1OC(=O)[C@H](C)[C@@H](O[C@H]2C[C@@](C)(OC)[C@@H](O)[C@H](C)O2)[C@H](C)[C@@H](O[C@@H]2O[C@H](C)C[C@H](N(C)C)[C@H]2O)[C@](C)(O)C[C@@H](C)CN(CCCNC(=O)Nc2ccccc2C(F)(F)F)[C@H](C)[C@@H](O)[C@]1(C)O [Example 6, 9-Deoxo-9-dihydro-9a-N-[N′-(2-trifluoromethyl)phenylcarbamoyl-γ-aminopropyl]-9a-aza-9a-homoerithromycin A] | ≦0.125 μg/ml | 16 | 2 | ≦0.125 μg/ml | 32 | 8 | 64 | 32 | 8 |
| CC[C@H]1OC(=O)[C@H](C)[C@@H](O[C@H]2C[C@@](C)(OC)[C@@H](O)[C@H](C)O2)[C@H](C)[C@@H](O[C@@H]2O[C@H](C)C[C@H](N(C)C)[C@H]2O)[C@](C)(O)C[C@@H](C)CN(CCCNC(=S)NCCCc2ccccc2)[C@H](C)[C@@H](O)[C@]1(C)O [Example 7, 9-Deoxo-9-dihydro-9a-N-[N′-(3-phenylpropyl)thiocarbamoyl-γ-aminopropyl]-9a-aza-9a-homoerithromycin A] | ≦0.125 μg/ml | 2 | 1 | ≦0.125 μg/ml | 16 | 4 | 16 | 8 | 1 |
| CC[C@H]1OC(=O)[C@H](C)[C@@H](O[C@H]2C[C@@](C)(OC)[C@@H](O)[C@H](C)O2)[C@H](C)[C@@H](O[C@@H]2O[C@H](C)C[C@H](N(C)C)[C@H]2O)[C@](C)(O)C[C@@H](C)CN(CCCNC(=O)NCCc2ccccc2)[C@H](C)[C@@H](O)[C@]1(C)O [Example 8, 9-Deoxo-9-dihydro-9a-N-[N′-(β-phenylethyl)carbamoyl-γ-aminopropyl]-9a-aza-9a-homoerithromycin A] | ≦0.125 μg/ml | 2 | 1 | ≦0.125 μg/ml | 32 | 4 | 16 | 8 | 1 |
